Results published in patent US20240207308A1, “METHOD FOR CULTURING DENDRITIC CELLS” (NANOFAENTECH CO., LTD., priority 2021, published 2024).

Legend:
Format in all cases: cell-based, mouse
spleen dendritic cells [1] = experiment: Flow cytometry of CD86, MHC-II, CD80, CD40 on cultured spleen dendritic cells (self-activation); conditions: for increase in the expression of CD86: each at 800 μg/mL, 24 hours; for increase in the expression of CD86 / increase in CD86 expression by self-activation: 2×10^5/mL cells; for increase in CD86 expression by self-activation: different concentrations up to 800 μg/mL
Method: Mouse spleen dendritic cells were obtained by adding EDTA-BSS (Balanced Salt Solution) buffer and collagenase solution (DMEM containing 100 units of collagenase type IV, medium containing low glucose) to spleens of female C57BL/6 mice and cutting it with surgical scissors, mixing the same with 6 mL of collagenase treatment solution, and incubating the mixture for 30 minutes. The separated whole spleen tissue was filtered using a 70 μm cell strainer (Falcon), followed by centrifugation at 1800 rpm for 5 minutes thus to separate the cells. Red blood cells were removed by adding red blood cell lysis buffer (Sigma-Aldrich) to the cells and washed twice with RPMI-1640 medium containing 10% fetal bovine serum (FBS). Dendritic cells were reacted with CD11c^+ antibody-bound microbeads and isolated using CD11c Microbeads Ultrapure (MACS, Milteni Biotec, USA).
In FIG. 2, in order to determine whether self-activation occurs when primary dendritic cells isolated from the spleen are cultured, dendritic cells were dispensed in a 24-well plate at 2×10^5/mL, and after culturing for 6 hours in RPMI-1640 medium at 37° C. under 5% CO2 condition, the expression levels of MHC-II, CD86, CD80 and CD40 were analyzed on the surface of dendritic cells using a flow cytometer (MACSQuant VYB flow cytometer, Miltenyi Biotec). Results measured using a flow cytometer were analyzed using FlowJo v10 (Tree Star, Ashland). The expression levels of CD86, CD80 and CD40 were shown as the percentage of cells stained with CD11c, and the expression level of MHC-II was shown as mean fluorescence intensity (MFI), which is the mean fluorescence intensity of fluorescence.
In FIG. 7, when culturing spleen dendritic cells, each of the prepared peptides was added at a concentration of 200 μg/mL and the expression level of CD86 was measured 6 hours after culture. When each peptide was used alone for treatment, the expression of CD86 was not inhibited in spleen dendritic cells. […] Compared to when the cells were treated with these three kinds of peptides, the expression was not inhibited even when the two kinds of peptides were used together for treatment. * indicates statistical significance as P<0.05 or less compared to the P1, P1-2, and P2-1 conditions.
In FIG. 9, peptides containing P1 and P2 and amino acids of these peptides as well as P3 peptide in a combination of three types were added to the spleen dendritic cell culture medium, and after culturing for 6 hours, the expression level of CD86 was measured by flow cytometry.
In FIG. 24, different concentrations of LP1, LP2 and LP3 were added to reach a concentration of 800 μg/mL, and spleen dendritic cells (2×10^5/mL) were cultured for 6 hours or 24 hours, and the CD86 expression level was measured by flow cytometry (MACSQuant VYB flow cytometer, Miltenyi Biotec). The measured results were analyzed using FlowJo v10 (Tree Star, Ashland).
In FIG. 25, when spleen primary dendritic cells were dispensed at 2×10^5/mL and cultured for 24 hours while scrambled peptides of S-LP1, S-LP2 and S-LP3 were each added at a concentration of 800 μg/mL, the increase in the expression of CD86 was not inhibited. Further, the expression of CD86 was not reduced even when the scrambled peptides S-P1, S-P2 and S-P3 were simultaneously treated at a concentration of 600 μg/mL, respectively.

[2] = test system: spleen primary dendritic cells; experiment: ELISA of TNF-α / IL-12p40 secreted by cultured spleen primary dendritic cells; conditions: cells 2×10^5/mL, 24 hours, without LPS
Method: In FIG. 12, spleen primary dendritic cells were dispensed at 1×10^6/mL and cultured for 24 hours, and then a concentration of TNF-α secreted from these cells in the culture medium was measured. As a result, it was confirmed that the secretion increased in a time-dependent manner. The concentration of TNF-α was measured at 450 nm using an ELISA kit (R&D systems) and a microplate analyzer (Synergy H1, Biotek). However, when dendritic cells were dispensed at 2×10^5/mL, CD86 expression was increased but TNF-α secretion was not increased (results not presented). * indicates statistical significance as P<0.05 or less compared with 3 h.
In FIG. 13, spleen primary dendritic cells were dispensed at 1×10^6/mL and cultured for 24 hours. […] Furthermore, when P4, P5 and P6 peptides were added at a concentration of 200 μg/mL, respectively, the secretion of TNF-α was not inhibited.
Therefore, it could be seen that fibronectin has a disadvantage of inhibiting the activation by stimulants although can maintain the inactivation of spleen dendritic cells. * indicates statistical significance as P<0.05 or less compared to -LPS.
In FIG. 27, an ELISA kit (R&D systems) was used to measure the concentration of TNF-α secreted into the culture medium when spleen primary dendritic cells were dispensed at 2×10^5/mL and cultured for 24 hours. The concentration was determined at 450 nm by a microplate analyzer (Synergy H1, Biotek).

spleen dendritic cells [3] = experiment: Fluorescence staining of CD86 in spleen dendritic cells, confocal microscope; conditions: without LPS, linker peptides 400 μg/mL, 24 hours
Method: In FIG. 11, culturing spleen dendritic cells (2×10^5/mL) and the prepared peptides were added at a concentration of 200 μg/mL, respectively, and after 6 hours, the expression level of CD86 using a PE-conjugated anti-CD86 antibody (eBioscience) was measured through a confocal microscope after fluorescence staining. After culturing spleen primary dendritic cells for a certain period of time, intracellular CD86, F-actin and nuclear staining was implemented. Expression of actin was stained with FITC-conjugated phalloidin (eBioscience), and nuclear staining was conducted with Hoechst 33342 (Sigma-Aldrich). For this purpose, cells cultured in a 48-well plate were placed in a 4% paraformaldehyde fixing solution, and then fixed at room temperature for 20 minutes.
Then, after washing twice with phosphate buffered saline solution, it was permeabilized with 0.1% Triton X-100 (Sigma-Aldrich) solution at room temperature for 5 minutes and washed twice with phosphate buffered saline solution. In order to remove non-specific staining, after reacting with 0.2% bovine serum albumin (Sigma-Aldrich) solution at room temperature for 20 minutes, it was washed twice with phosphate buffered saline solution. After that, the anti-CD86 antibody and phalloidine were diluted in 0.2% bovine serum albumin solution at a ratio of 1:40 and reacted for 40 minutes, washed 3 times with Tris buffer, placed on a slide glass, followed by counter-staining with Hoechst 33342 solution for nuclear staining of cells. After sealing with a cover glass, the cells were observed using a confocal laser microscope (K1 nanoscope).
In FIG. 26, spleen dendritic cells (2×10^5/mL) were dispensed in a 48-well plate, and linker peptides were each added at a concentration of 400 μg/mL, followed by culturing for 24 hours. Activation of spleen dendritic cells was induced by adding 1 μg/mL of LPS to the culture medium. The cultured cells were placed in a 4% paraformaldehyde fixing solution and fixed at room temperature for 20 minutes. After fluorescence staining using PE-conjugated anti-CD86 antibody (eBioscience), it was measured with a confocal microscope (K1 Nanoscope, Korea). Intracellular actin expression was stained with FITC-conjugated phalloidin (eBioscience), and nuclear staining was conducted with Hoechst 33342 (Sigma-Aldrich). CD86 antibody and phalloidin were diluted 1:40 in 0.2% bovine serum albumin solution and used.

[4] = test system: spleen T cells from Balb/c mice; experiment: Mixed lymphocyte reaction: proliferation of CFSE-stained allogeneic T cells co-cultured with spleen dendritic cells; conditions: dendritic cells without peptide or fibronectin, activated with the stimulant, compared to control
Method: Since the main role of activated dendritic cells is to induce antigen-specific T-cell activation and proliferation according to the stimulatory properties, it was investigated whether self-activated dendrite cells after culturing and dendritic cells activated with LPS after culturing with addition of peptides can induce T cell proliferation by mixed lymphocyte reaction (MLR) test. The spleen dendritic cells isolated from C57B/L6 mice were self-activated for 24 hours, otherwise, when cultured with addition of peptides or fibronectin, the cells were treated with LPS and activated. Spleen T cells from Balb/c mice were isolated using a CD4^+/CD8^+ T cell isolation kit (Miltenyi Biotec, Bergisch-Gladbach, Germany) and MACS column (Miltenyi Biotec), followed by 10 μM CFSE staining (Molecular Probes; Thermo Fisher Scientific Inc., USA). The activated dendritic cells and CFSE-stained T cells were co-cultured at a ratio of 1:20 for 4 days, and the T cell proliferation level was measured as a percentage of cells with decreased CFSE. […] In FIG. 22, the amount of cytokines secreted after co-culture of spleen dendritic cells and T cells for 4 days was measured by ELISA method. […]

Substance: NRPHSGGGSDRGGGGSVDL (Scrambled linker peptide S-LP2) [scrambled linker peptide, control, reference compound]
- increase in the expression of CD86 (spleen dendritic cells [1]): not inhibited

Substance: NRPHSGGGSGGGSDRGGGGSVDL (Scrambled linker peptide S-LP3) [scrambled linker peptide, control, reference compound]
- increase in the expression of CD86 (spleen dendritic cells [1]): not inhibited

Substance: NRPHSGSDRGGSVDL (Scrambled linker peptide S-LP1) [scrambled linker peptide, control, reference compound]
- increase in the expression of CD86 (spleen dendritic cells [1]): not inhibited

Substance: PHSRNGGGSGGGSRGDGGGSLDV (Linker peptide LP3)
- TNF-α secretion [2]: hardly occurred
- increase in CD86 expression by self-activation (spleen dendritic cells [1]; 6 hours or 24 hours): inhibited
- self-activation inhibitory effect compared among LP1, LP2 and LP3 (spleen dendritic cells [1]; up to 800 μg/mL, 6 hours or 24 hours): greatest self-activation inhibitory effect
- CD86-expressing cells (spleen dendritic cells [3]): almost not observed

Substance: PHSRNGGGSRGDGGGSLDV (Linker peptide LP2)
- TNF-α secretion [2]: hardly occurred
- increase in CD86 expression by self-activation (spleen dendritic cells [1]; 6 hours or 24 hours): inhibited
- CD86-expressing cells (spleen dendritic cells [3]): almost not observed

Substance: PHSRNGSRGDGSLDV (Linker peptide LP1)
- TNF-α secretion [2]: hardly occurred
- increase in CD86 expression by self-activation (spleen dendritic cells [1]; 6 hours or 24 hours): inhibited
- CD86-expressing cells (spleen dendritic cells [3]): almost not observed

Substance: Pro-His-Ser-Arg-Asn (PHSRN; Fibronectin motif P3) [Peptide P3]
- expression level of CD86 (spleen dendritic cells [1]; treated alone at 600 μg/mL, 6 hours): no inhibitory effect

Substance: laminin
- expression level of CD86 or MHC-II (self-activation) (spleen dendritic cells [1]; 200 μg/mL (laminin 200 μg/mL or higher), cultured 6 hours): self-activation was not inhibited
- expression of MHC-II, CD80 and CD40 in addition to CD86 (spleen dendritic cells [1]; cultured 6 hours or 24 hours, peptides 200 μg/mL each): no effect was observed

Substance: polyinosinic:polycytidylic acid [poly (I:C), reference compound]
- proliferation of co-cultured spleen T cells [4]: slightly increased
